Assay results published in patent US12319664B2, “Herbicidally active 3-phenylisoxazoline-5-carboxamides of cyclopentenylcarboxylic acid derivatives” (Bayer Aktiengesellschaft, priority 2018, dated 2025).

How the values were obtained:
[1] = tested on: ALOMY; test: Post-emergence herbicidal action against ALOMY; type: in vivo, Alopecurus myosuroides; conditions: application rate 80 g/ha, rated visually after about 3 weeks
Procedure, shortened: (§1)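 Greenhouse post-emergence test: compound sprayed onto green plant parts at one-leaf stage as WP or EC preparation with 0.5% additive, water rate 600 l/ha. Percent activity scored by eye after roughly 3 weeks, where 0% matches controls and 100% means death.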

[2] = tested on: AVEFA; test: Post-emergence herbicidal action against AVEFA; type: in vivo, Avena fatua; conditions: application rate 80 g/ha, rated visually after about 3 weeks
Procedure, shortened: as §1

[3] = tested on: LOLRI; test: Post-emergence herbicidal action against LOLRI; type: in vivo, Lolium rigidum; conditions: application rate 80 g/ha, rated visually after about 3 weeks
Procedure, shortened: as §1

[4] = tested on: SETVI; test: Post-emergence herbicidal action against SETVI; type: in vivo, Setaria viridis; conditions: application rate 80 g/ha, rated visually after about 3 weeks
Procedure, shortened: as §1

[5] = tested on: ABUTH; test: Post-emergence herbicidal action against ABUTH; type: in vivo, Abutilon theophrasti; conditions: application rate 80 g/ha, rated visually about 3 weeks after treatment
Procedure, shortened: as §1

[6] = tested on: AMARE; test: Post-emergence herbicidal action against AMARE; type: in vivo, Amaranthus retroflexus; conditions: application rate 80 g/ha, rated visually about 3 weeks after treatment
Procedure, shortened: as §1

[7] = tested on: POLCO; test: Post-emergence herbicidal action against POLCO; type: in vivo, Polygonum convolvulus; conditions: application rate 80 g/ha, rated visually about 3 weeks after treatment
Procedure, shortened: as §1

[8] = tested on: STEME; test: Post-emergence herbicidal action against STEME; type: in vivo, Stellaria media; conditions: application rate 80 g/ha, rated visually about 3 weeks after treatment
Procedure, shortened: as §1

[9] = tested on: VIOTR; test: Post-emergence herbicidal action against VIOTR; type: in vivo, Viola tricolor; conditions: application rate 80 g/ha, rated visually about 3 weeks after treatment
Experimental: (§2) [table] 2. Post-emergence herbicidal action against harmful plants and crop plant compatibility Seeds of monocotyledonous and dicotyledonous weeds and crop plants are placed in sandy loam in plastic or wood-fibre pots, covered with soil and cultivated in a greenhouse under controlled growth conditions. 2 to 3 weeks after sowing, the test plants are treated at the one-leaf stage. The compounds of the invention, formulated in the form of wettable powders (WP) or as emulsion concentrates (EC), are then sprayed onto the green parts of the plants as aqueous suspension or emulsion with addition of 0.5% additive at a water application rate of 600 l/ha (converted). After the test plants have been kept in the greenhouse under optimum growth conditions for about 3 weeks, the activity of the preparations is rated visually in comparison to untreated controls. For example, 100% activity=the plants have died, 0% activity=like control plants.

[10] = tested on: VERPE; test: Post-emergence herbicidal action against VERPE; type: in vivo, Veronica persica; conditions: application rate 80 g/ha
Procedure, shortened: as §1

[11] = tested on: HORMU; test: Post-emergence herbicidal action against HORMU; type: in vivo, Hordeum murinum; conditions: application rate 80 g/ha
Procedure, shortened: as §1

[12] = tested on: ECHCG; test: Post-emergence herbicidal action against ECHCG; type: in vivo, Echinochloa crus-galli; conditions: application rate 80 g/ha, rated visually after about 3 weeks
Procedure, shortened: as §1

[13] = tested on: PHBPU; test: Post-emergence herbicidal action against PHBPU; type: in vivo, Pharbitis purpurea; conditions: application rate 80 g/ha, rated visually about 3 weeks after treatment
Experimental: as §2

| Structure (SMILES) | Herbicidal action against [%] ALOMY [1] | Herbicidal action against [%] AVEFA [2] | Herbicidal action against [%] LOLRI [3] | Herbicidal action against [%] SETVI [4] | Herbicidal action against [%] ABUTH [5] | Herbicidal action against [%] AMARE [6] | Herbicidal action against [%] POLCO [7] | Herbicidal action against [%] STEME [8] | Herbicidal action against [%] VIOTR [9] | Herbicidal action against [%] VERPE [10] | Herbicidal action against [%] HORMU [11] | Herbicidal action against [%] ECHCG [12] | Herbicidal action against [%] PHBPU [13] |
| --- | --- | --- | --- | --- | --- | --- | --- | --- | --- | --- | --- | --- | --- |
| COC(=O)C(NC(=O)C1C=CC(NC(=O)C2(C(F)(F)F)CC(c3cc(F)cc(F)c3)=NO2)C1)C(C)C (mixture of isomers) [II-37] | 80% | 100% | 100% | 80% | 80% | 90% | 100% | 90% | 90% | 90% | 90% | – | – |
| O=C(O)C1=C[C@@H](NC(=O)[C@@]2(C(F)(F)F)CC(c3cc(F)cc(F)c3)=NO2)CC1 [Example V-04] | 100% | – | 90% | 80% | 80% | 80% | – | 90% | 80% | 80% | 90% | 80% | – |
| Cc1cc(C)cc(C2=NOC(C(=O)NC3C=CC(C(=O)OCC(F)(F)F)C3)(C(F)(F)F)C2)c1 (mixture of isomers) [Example I-057] | 90% | – | 90% | – | – | – | 80% | 80% | 80% | 80% | 80% | 80% | – |
| CCOC(=O)[C@@H]1C=C[C@H](NC(=O)C2(C(F)(F)F)CC(c3ccccc3)=NO2)C1 (some centres unmarked) [Example I-021] | 90% | 100% | 90% | 90% | 80% | 90% | 90% | 80% | – | 80% | 90% | 80% | 80% |
| CC(C)(NC(=O)C1C=CC(NC(=O)C2(C(F)(F)F)CC(c3cc(F)cc(F)c3)=NO2)C1)C(F)(F)F (centres unmarked) [II-38] | – | – | – | – | – | 90% | – | – | 80% | – | – | – | – |
| COCCOC(=O)C1C=CC(NC(=O)C2(C(F)(F)F)CC(c3cccc(C#N)c3)=NO2)C1 (mixture of isomers) [Example I-086] | 90% | 90% | 90% | 90% | 90% | 90% | 80% | 80% | – | 90% | 100% | 90% | 80% |
| C=CC1(C(=O)NC2C=CC(C(=O)NC(C(=O)OC)C(C)C)C2)CC(c2cc(F)cc(F)c2)=NO1 (single isomer, unassigned) [II-26] | 100% | 90% | 100% | 80% | 80% | 90% | 80% | 90% | – | 80% | 100% | 80% | 80% |
| CCOC(=O)C1C=CC(NC(=O)C2(C)CC(c3cc(F)cc(C#N)c3)=NO2)C1 (mixture of isomers) [Example I-073] | 90% | 100% | 100% | 80% | 80% | 80% | 90% | 90% | – | 80% | 90% | 100% | 80% |
| COCCOC(=O)C1C=CC(NC(=O)C2(C(F)(F)F)CC(c3cc(F)cc(C#N)c3)=NO2)C1 (centres unmarked) [Example I-099] | 90% | 90% | 100% | 90% | – | 80% | 80% | 80% | 80% | 80% | 80% | 80% | – |
| Cc1cc(Cl)cc(C2=NOC(C(=O)N[C@H]3C=C[C@@H](C(=O)OCC(F)(F)F)C3)(C(F)(F)F)C2)c1 (some centres unmarked) [Example I-029] | 90% | 80% | 90% | 80% | – | 90% | 80% | – | 80% | 90% | 80% | – | – |
| C=CC1(C(=O)NC2C=CC(C(=O)O)C2)CC(c2cc(F)cc(F)c2)=NO1 (centres unmarked) [Example I-014] | 90% | 90% | 90% | 80% | – | 90% | 80% | 90% | 90% | 90% | 80% | 90% | – |
| CC1(C(=O)NC2C=CC(C(=O)O)C2)CC(c2cccc(C#N)c2)=NO1 (mixture of isomers) [Example I-070] | 90% | 100% | 80% | 90% | 80% | 90% | 90% | 80% | – | 80% | 90% | 90% | 80% |
